The text below walks through data of ChEMBL document CHEMBL5465560, “Selectivity Literature for EUbOPEN Chemogenomic Library” (2024).

SMILES strings stand for the structures.

In assay [1] the target is Serine/threonine-protein kinase PLK1 (Homo sapiens, UniProt P53350). The assay is described as follows: Selectivity interaction (KinomeScan (DiscoverX)) EUB0000595a PLK1. Particulars: at 10 µM.
Assay [2] deals with Serine/threonine-protein kinase Nek4 (Homo sapiens) (UniProt P51957). Particulars: at 10 µM.
Sequence of Serine/threonine-protein kinase Nek4 (Homo sapiens) (P51957 whole entry, looked up): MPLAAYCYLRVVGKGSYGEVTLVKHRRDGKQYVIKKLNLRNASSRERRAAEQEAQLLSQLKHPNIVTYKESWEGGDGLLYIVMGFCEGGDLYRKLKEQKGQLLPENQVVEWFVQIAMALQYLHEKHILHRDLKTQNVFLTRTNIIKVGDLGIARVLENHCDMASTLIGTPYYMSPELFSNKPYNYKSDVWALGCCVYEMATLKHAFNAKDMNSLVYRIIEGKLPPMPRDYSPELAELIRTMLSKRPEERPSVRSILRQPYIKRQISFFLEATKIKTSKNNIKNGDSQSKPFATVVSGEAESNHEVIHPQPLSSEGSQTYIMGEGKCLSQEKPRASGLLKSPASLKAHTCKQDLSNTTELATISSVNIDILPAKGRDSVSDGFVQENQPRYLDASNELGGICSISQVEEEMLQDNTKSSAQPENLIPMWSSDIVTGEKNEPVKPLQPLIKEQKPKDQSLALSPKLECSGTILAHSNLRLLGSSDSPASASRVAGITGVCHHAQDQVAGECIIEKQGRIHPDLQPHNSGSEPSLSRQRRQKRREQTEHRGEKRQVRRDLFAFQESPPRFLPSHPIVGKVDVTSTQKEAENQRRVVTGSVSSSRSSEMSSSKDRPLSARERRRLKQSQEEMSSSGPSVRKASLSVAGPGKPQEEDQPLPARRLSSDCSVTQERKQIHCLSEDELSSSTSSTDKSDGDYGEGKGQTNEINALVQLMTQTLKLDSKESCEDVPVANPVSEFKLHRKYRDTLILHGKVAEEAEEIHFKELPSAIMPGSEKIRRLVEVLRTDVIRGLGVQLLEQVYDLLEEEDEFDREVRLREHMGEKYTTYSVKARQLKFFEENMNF
The target in assay [3] is Protein-tyrosine kinase 2-beta (Homo sapiens) (UniProt Q14289). The assay is described as follows: Selectivity interaction (ActivX KiNativ screen (kinase selectivity in THP-1 cell lysates)) EUB0000639a PTK2B. Type of assay: subcellular. Particulars: lysate, at 5 µM.
Sequence of Protein-tyrosine kinase 2-beta (Homo sapiens) (Q14289 whole entry, looked up): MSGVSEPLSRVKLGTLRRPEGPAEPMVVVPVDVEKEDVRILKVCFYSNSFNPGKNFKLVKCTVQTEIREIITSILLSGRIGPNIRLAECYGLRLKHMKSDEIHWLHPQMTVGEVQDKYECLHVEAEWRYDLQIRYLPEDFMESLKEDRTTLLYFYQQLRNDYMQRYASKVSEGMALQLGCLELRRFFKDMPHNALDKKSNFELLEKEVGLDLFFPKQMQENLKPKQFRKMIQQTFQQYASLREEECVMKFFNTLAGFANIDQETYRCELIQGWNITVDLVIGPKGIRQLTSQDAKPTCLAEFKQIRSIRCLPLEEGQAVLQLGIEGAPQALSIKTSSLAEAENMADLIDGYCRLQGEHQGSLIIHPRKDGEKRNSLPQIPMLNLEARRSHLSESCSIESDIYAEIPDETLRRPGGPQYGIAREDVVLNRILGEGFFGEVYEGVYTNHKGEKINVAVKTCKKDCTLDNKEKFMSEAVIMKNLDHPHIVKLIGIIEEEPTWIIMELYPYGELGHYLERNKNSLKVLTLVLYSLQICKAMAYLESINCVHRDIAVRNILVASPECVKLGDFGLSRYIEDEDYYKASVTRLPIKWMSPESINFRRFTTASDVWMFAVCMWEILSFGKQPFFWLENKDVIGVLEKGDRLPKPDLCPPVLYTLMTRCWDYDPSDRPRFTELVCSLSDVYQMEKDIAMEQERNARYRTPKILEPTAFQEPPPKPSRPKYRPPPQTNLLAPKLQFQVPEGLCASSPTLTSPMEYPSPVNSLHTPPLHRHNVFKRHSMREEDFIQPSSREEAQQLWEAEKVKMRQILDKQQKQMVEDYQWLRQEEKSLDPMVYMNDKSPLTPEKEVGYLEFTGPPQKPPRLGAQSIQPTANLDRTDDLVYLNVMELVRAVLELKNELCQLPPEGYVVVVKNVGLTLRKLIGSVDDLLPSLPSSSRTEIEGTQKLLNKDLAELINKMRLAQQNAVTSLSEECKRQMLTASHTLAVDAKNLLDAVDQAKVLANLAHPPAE
Assay [4] has as its target T1, Dual specificity tyrosine-phosphorylation-regulated kinase 2 (Homo sapiens) (UniProt Q92630).
T1 sequence (whole entry): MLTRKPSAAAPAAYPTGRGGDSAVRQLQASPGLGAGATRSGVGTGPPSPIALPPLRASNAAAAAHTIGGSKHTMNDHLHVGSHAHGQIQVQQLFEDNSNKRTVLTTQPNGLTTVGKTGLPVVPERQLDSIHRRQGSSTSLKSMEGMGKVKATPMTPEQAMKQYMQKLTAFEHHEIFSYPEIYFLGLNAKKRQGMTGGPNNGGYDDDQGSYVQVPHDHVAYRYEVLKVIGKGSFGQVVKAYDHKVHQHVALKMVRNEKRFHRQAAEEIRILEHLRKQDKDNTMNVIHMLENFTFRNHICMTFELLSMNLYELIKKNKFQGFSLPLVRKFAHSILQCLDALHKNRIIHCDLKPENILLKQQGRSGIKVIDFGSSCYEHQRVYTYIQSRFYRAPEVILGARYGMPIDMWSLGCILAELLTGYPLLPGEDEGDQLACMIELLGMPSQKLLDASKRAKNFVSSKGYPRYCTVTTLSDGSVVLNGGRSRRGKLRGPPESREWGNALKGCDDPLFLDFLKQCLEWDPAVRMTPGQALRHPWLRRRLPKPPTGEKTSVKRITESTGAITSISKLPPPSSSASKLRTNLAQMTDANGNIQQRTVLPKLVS
The assay is described as follows: Selectivity interaction (Kinase panel (DSF assay)) EUB0001559a DYRK2. On the technique in general: DSF heats the sample and reads unfolding from a dye or from intrinsic fluorescence.

Assay [5] concerns the target Phosphatidylinositol 4-kinase beta (Homo sapiens, UniProt Q9UBF8). The assay is described as follows: Selectivity interaction (KinomeScan (DiscoverX)) EUB0000045b PI4KB.
In assay [6] the target is Casein kinase I isoform epsilon (Homo sapiens, UniProt P49674). In words: Selectivity interaction (ProQinase) EUB0000171b CSNK1E.
Sequence of Casein kinase I isoform epsilon (P49674 whole entry, looked up, canonical isoform): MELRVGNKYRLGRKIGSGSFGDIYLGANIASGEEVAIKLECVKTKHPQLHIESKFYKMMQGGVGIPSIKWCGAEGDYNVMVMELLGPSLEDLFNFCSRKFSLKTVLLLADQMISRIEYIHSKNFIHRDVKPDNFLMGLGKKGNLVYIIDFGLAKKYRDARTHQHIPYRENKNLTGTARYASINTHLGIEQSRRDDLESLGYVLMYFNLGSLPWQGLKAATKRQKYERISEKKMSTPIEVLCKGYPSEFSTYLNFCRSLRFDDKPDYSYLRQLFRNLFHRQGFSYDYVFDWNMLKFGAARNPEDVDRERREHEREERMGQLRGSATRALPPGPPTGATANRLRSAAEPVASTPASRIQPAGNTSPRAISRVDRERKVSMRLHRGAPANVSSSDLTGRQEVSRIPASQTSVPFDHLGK
In assay [7] the target is T2, Inhibitor of nuclear factor kappa-B kinase subunit beta (Homo sapiens) (UniProt O14920).
T2 sequence (whole entry): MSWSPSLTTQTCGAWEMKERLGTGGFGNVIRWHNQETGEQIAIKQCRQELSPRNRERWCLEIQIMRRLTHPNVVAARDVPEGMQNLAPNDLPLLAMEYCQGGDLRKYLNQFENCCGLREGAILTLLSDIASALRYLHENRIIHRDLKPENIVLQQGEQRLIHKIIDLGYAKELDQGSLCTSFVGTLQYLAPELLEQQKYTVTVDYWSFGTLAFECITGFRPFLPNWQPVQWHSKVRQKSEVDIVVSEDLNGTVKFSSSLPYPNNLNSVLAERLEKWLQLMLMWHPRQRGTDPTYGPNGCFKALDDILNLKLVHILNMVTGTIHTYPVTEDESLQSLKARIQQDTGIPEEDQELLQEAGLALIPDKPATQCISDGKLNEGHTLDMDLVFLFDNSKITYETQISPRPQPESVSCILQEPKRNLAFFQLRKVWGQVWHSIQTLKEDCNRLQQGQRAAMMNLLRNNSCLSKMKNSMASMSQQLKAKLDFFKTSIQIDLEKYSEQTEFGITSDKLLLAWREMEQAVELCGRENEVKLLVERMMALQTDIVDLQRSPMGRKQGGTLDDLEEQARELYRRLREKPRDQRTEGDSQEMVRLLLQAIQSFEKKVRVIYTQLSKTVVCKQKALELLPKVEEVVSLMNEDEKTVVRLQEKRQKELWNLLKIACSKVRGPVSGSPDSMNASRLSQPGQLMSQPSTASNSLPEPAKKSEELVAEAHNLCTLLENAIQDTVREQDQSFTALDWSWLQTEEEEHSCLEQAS
The conditions noted are these: at 1 µM.

The target of assay [8] is T3, Serine/threonine-protein kinase D1 (Homo sapiens) (UniProt Q15139).
T3 sequence (whole entry): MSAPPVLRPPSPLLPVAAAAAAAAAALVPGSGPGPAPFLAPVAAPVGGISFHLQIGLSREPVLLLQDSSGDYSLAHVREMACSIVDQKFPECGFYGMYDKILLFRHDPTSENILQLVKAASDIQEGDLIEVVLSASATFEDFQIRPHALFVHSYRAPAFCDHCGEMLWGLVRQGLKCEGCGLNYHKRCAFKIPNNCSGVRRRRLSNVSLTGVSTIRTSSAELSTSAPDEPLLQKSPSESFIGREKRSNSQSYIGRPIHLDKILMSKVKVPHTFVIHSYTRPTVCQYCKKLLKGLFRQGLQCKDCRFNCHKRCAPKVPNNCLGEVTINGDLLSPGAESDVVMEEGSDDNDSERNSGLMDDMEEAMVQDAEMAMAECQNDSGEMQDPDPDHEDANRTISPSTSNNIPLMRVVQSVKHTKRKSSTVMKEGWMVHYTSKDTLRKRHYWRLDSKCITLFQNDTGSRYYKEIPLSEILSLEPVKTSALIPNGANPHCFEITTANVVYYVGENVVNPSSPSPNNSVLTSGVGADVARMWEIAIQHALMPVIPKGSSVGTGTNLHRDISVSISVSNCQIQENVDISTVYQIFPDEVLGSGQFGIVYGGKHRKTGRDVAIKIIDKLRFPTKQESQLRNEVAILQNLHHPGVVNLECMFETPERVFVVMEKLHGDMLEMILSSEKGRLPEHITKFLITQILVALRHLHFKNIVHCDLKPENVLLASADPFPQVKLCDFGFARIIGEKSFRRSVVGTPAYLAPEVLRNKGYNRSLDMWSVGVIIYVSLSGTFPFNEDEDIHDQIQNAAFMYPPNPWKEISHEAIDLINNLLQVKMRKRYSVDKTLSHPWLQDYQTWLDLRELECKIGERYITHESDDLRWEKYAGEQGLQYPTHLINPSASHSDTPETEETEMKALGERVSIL
The assay is described as follows: Selectivity interaction (Upstate Kinase Profiler service (Millipore)) EUB0000056c PRKD1. The conditions noted are these: at 1 µM.

Assay [9] addresses Phosphatidylinositol 4,5-bisphosphate 3-kinase catalytic subunit beta isoform (Homo sapiens) (UniProt P42338). In words: Selectivity interaction (KinomeScan (DiscoverX)) EUB0001079a PIK3CB. Particulars: at 1 µM.
Assay [10] concerns the target Mitogen-activated protein kinase kinase kinase kinase 1 (Homo sapiens) (UniProt Q92918). In words: Selectivity interaction (KinomeScan (DiscoverX)) EUB0000229b MAP4K1. Particulars: at 10 µM.

Sequence of Phosphatidylinositol 4-kinase beta (Q9UBF8 2-816 limits assumed): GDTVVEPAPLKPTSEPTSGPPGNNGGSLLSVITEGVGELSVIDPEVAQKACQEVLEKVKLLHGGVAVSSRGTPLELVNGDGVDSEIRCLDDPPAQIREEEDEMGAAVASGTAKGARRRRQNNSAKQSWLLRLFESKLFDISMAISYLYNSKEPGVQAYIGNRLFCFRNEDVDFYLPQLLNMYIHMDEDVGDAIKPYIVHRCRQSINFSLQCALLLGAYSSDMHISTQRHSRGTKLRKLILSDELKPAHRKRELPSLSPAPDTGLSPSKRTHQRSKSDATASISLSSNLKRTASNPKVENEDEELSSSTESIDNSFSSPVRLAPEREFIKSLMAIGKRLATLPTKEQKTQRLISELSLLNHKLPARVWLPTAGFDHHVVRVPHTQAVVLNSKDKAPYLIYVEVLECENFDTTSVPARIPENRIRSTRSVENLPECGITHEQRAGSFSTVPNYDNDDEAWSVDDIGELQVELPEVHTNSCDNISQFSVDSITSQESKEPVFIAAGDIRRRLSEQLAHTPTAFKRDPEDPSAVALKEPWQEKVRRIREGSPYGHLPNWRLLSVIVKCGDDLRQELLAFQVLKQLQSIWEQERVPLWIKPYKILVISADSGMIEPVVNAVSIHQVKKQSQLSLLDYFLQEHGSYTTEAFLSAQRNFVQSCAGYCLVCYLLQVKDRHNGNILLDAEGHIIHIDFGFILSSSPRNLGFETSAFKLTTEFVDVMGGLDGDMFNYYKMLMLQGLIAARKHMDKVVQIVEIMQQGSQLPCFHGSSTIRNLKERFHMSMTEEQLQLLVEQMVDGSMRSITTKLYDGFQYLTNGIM
Sequence of Phosphatidylinositol 4,5-bisphosphate 3-kinase catalytic subunit beta isoform (Homo sapiens) (P42338 whole entry, looked up, canonical isoform): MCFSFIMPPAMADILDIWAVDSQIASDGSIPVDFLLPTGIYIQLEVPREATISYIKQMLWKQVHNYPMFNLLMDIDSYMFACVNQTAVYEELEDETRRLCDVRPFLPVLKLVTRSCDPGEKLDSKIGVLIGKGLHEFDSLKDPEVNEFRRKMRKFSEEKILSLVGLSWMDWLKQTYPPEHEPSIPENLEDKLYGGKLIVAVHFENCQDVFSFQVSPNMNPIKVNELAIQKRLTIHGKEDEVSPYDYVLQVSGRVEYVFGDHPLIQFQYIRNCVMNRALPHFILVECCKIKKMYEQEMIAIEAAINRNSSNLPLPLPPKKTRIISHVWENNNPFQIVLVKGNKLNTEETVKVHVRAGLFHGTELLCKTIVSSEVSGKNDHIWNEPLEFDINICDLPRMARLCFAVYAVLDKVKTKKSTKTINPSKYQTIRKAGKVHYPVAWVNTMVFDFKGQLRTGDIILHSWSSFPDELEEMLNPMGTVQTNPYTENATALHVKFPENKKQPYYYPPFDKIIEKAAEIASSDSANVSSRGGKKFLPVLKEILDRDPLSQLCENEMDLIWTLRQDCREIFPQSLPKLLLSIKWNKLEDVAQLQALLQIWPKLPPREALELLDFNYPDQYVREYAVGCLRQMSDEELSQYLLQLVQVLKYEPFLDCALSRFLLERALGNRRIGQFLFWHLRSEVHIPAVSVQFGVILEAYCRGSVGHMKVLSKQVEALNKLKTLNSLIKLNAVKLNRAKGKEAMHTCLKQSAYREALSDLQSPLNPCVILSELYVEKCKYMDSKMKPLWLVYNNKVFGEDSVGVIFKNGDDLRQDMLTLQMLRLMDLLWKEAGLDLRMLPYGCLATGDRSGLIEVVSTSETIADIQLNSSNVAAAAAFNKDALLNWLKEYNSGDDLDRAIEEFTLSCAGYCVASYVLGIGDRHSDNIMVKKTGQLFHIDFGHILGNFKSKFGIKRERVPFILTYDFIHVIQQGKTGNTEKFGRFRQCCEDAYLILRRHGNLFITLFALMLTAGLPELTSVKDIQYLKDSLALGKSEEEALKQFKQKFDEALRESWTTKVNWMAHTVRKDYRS
Sequence of Serine/threonine-protein kinase PLK1 (P53350 whole entry): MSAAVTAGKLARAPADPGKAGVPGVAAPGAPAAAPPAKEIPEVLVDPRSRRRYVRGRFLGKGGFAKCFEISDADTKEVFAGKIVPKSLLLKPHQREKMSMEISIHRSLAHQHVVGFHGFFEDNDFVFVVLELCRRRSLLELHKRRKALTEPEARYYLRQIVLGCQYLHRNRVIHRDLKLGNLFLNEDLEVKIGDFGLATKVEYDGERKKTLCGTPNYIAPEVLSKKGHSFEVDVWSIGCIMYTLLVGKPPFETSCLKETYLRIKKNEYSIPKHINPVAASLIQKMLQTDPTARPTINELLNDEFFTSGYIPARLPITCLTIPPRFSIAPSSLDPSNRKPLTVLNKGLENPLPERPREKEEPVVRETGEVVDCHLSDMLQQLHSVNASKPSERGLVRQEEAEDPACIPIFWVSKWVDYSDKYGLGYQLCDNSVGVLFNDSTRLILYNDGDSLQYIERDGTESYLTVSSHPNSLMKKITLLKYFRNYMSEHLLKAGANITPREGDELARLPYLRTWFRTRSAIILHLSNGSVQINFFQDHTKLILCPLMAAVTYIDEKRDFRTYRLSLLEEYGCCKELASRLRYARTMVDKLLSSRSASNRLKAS

In turn, `COCC(=O)NC/C=C/c1ccc2ncnc(Nc3ccc(Oc4ccc(C)nc4)c(C)c3)c2c1` [CP-724714] displayed a % of control in assay [1] of 81%.
`Cc1cc([C@@H](C)Nc2ccccc2C(=O)O)c2nc(N3CCOCC3)cc(=O)n2c1` [AZD-6482] displayed a % of control in assay [2] of 61%.
In assay [3], `CC[C@@H]1[C@H](F)C(=O)N[C@@H]1COc1nccc2cc(C(N)=O)c(OC)cc12` [ZIMLOVISERTIB] came in with a % of inhibition of 11.6%.
`CN(C(=O)c1cnn2cccnc12)c1cc2c(cc1N1CCOCC1)C(=O)N(C[C@@H](F)C(C)(C)O)C2` showed a dTM in [4] of -0.4 K.
For `C=CC(=O)Nc1cc(-n2c(=O)ccc3cnc4ccc(-c5ccc(NS(C)(=O)=O)cc5)cc4c32)ccc1C`, the % of control in assay [5] (at 1 µM) was 79%; in [5] (at 10 µM) it was 20%.
Regarding `C=CC(=O)Nc1cccc(C(=O)Nc2ccc(Nc3cc(-c4[nH]c(SC)nc4C)ccn3)cc2)c1`, the % of control in [6] (at 1 µM) stood at 57%; in assay [6] (at 5 µM) it was 21%.
On to `Cc1ccc(-c2ccc3c(ccc4sc5c(c43)NC[C@@H](C)NC5=O)n2)cn1`, for which the % of inhibition in [7] came out at 0%; in [8], 19%.
In [9], `Nc1cnc(N2CCc3cc(S(=O)(=O)Nc4c(F)cc(Cl)cc4F)cc(N4CCCC4=O)c32)nc1` [TP-020n] had a % of control of 87%.
In [10], `COc1cc(N(C)c2ccnc3ccc(C(F)(F)F)cc23)cc(OC)c1OC` displayed a % binding of 96%.
